Laboratory results as given in patent US8575116B1, “Polyacetylenic compounds for protecting against pancreatic islet atrophy” (Academia Sinica, priority 2010, dated 2013).

Key:
db/db mice [1] = assay: Blood insulin after a single oral dose in fed diabetic db/db mice; assay type: in vivo, mouse; conditions: for blood insulin levels compared to vehicle, effect in words: single dose, db/db mice; for Blood insulin level: fed db/db mice
Protocol: (§1) After 0.5 h, the levels of postprandial blood sugar and insulin from the mice were monitored for additional 4 h. For continued administration, diabetic db/db males were grouped and tube-fed with vehicle, cytopiloyne (0.5 or 2.5 mgkg^−1 day^−1) or glimepiride (2.5 mg kg^−1 day^−1) for the indicated time, while levels of blood sugar, insulin, and glycosylated HbA1c, and glucose tolerance in these mice were determined. To evaluate the prophylaxis of diabetes, diabetes-free db/db mice at 4 weeks of age were tube-fed with vehicle or cytopiloyne (CP, 0.5 mgkg^−1), once a day, for 4 weeks. Unless indicated otherwise, the mice were fasted for 16 h, then Postprandial blood glucose and insulin in these mice were measured.
(§2) Glucose levels in mouse blood samples were measured using an Elite® glucometer (Bayer, Pittsburgh, Pa., USA). Insulin levels in blood samples or islet cell supernatants were determined by ELISA assays (Mercodia, Uppsala, Sweden). The levels of glycosylated HbA1c in mouse blood samples were measured using DCA 2000 analyzer (Bayer, Pittsburgh, Pa., USA).
The same procedure as Table 1 was performed. Blood samples at the indicated time interval (0, 0.5, 1, 2, and 4 h) were collected from the retro-orbital vein of those mice and the insulin levels in each blood sample were determined using ELISA kits. The number of mice used (n) is indicated in parentheses in the first column.

adiponectin = assay: Real-time RT-PCR of adiponectin mRNA relative to GAPDH in 3T3-L1 cells; assay type: cell-based, mouse
[2] = Body weight of db/db mice during treatment; assay type: in vivo, mouse
Protocol: Tables 3 and 4 show the effects of cytopiloyne on body weight and food intake in db/db mice, respectively. Diabetic db/db mice at 6 to 8 weeks of age were allowed free access to food. These mice were treated with vehicle, glimepiride (GLM, 2.5 mg/kg/day), or cytopiloyne (CP, 0.5 and 2.5 mg/kg/day). Mean body weight and food intake of each group were measured from 0 to 6 weeks post-treatment. The number of mice (n) is indicated in parentheses.

[3] = test system: adipocyte protein 2 (aP2); assay: Real-time RT-PCR of aP2 mRNA relative to GAPDH in 3T3-L1 cells; assay type: cell-based, mouse
[4] = test system: insulin mRNA in rat primary pancreatic islet cells; assay: Real-time RT-PCR of insulin mRNA relative to L13 in rat pancreatic islet cells; assay type: cell-based
RIN-m5F cells = assay: DAG and cholesterol generation (3H-myristic acid, TLC) in RIN-m5F cells; assay type: cell-based, rat; conditions: for level of DAG: versus vehicle control, glucose 16.7 mM
Protocol: FIGS. 5A-D show the effects of cytopiloyne on calcium mobilization, DAG generation and PKCa activation. (A) After Fura 2-AM loading, RIN-m5F cells were stimulated with 16.7 mM glucose (HG) and cytopiloyne at 7, 14 and 28 μM. Level of intracellular calcium, as shown by the 340/380 nm ratio, was detected using a fluorescence spectrophotometer. (B) RIN-m5F cells were pulsed with ^3H-myristic acid (5 Cim1^−1) for 16 hours. After washing, the cells were stimulated with glucose, cytopiloyne, PMA and glimepiride. Total lipids were separated on a silica thin layer plate. DAG and cholesterol were visualized with iodine vapor and identified by their standards. (C) RIN-m5F cells were incubated with vehicle (Mock), cytopiloyne (CP, 3, 7 and 14 μM), PMA (1 μM) and 16.7 mM (HG). Membrane or cytosolic proteins were subjected to Western blot with anti-PKCα and anti-Actin antibodies. (D) RIN-m5F cells were incubated with vehicle (Mock), cytopiloyne (CP 7 μM) and PMA (1 μM). After lysis, total lystaes were subjected to Western blot with anti-PKCα, anti-phospho-PKCα and anti-Actin antibodies.
RIN-m5F cells were incubated with ^3H-myristic acid ([…]) for 16 hours. After washing, the cells were treated with glucose, cytopiloyne, PMA and glimepiride. Total lipids were extracted as previously described. Radioactive DAG was separated on a silica thin layer plate with the first developer of ethylacetate: acetic acid: triethylpentane (9:2:5) and the second developer of hexane: diethylether: methanol: acetic acid (90:20:3:2). The spot of DAG was visualized with iodine vapor and identified by DAG standard.

db/db mice [5] = assay: Blood glucose after a single oral dose in fed diabetic db/db mice; assay type: in vivo, mouse; conditions: for postprandial blood glucose levels, effect in words: single dose, cytopiloyne 0.1, 0.5 and 2.5 mgkg^−1, glimepiride 2.5 mgkg^−1, diabetic db/db mice; for Blood glucose level: fed db/db mice
Protocol: as §1, §2
Diabetic db/db mice aged 6 to 8 weeks were grouped, fasted for 12 h, allowed free access to food for 2 h, and removed from food. One half hour after food removal was set as time 0. Postprandial blood was collected from the tail vein of the mice, tube-fed with vehicle, glimepiride (GLM) at 2.5 mg/kg/day and cytopiloyne (CP) at 0.1, 0.5 and 2.5 mg/kg/day. Blood samples were collected at the indicated time intervals (0, 1, 2 and 4 h). The blood glucose levels were determined using a glucometer. The number of mice tested (n) is indicated in parentheses in the first column.

[6] = single oral dose 0.1 mg/kg, 0 h
[7] = single oral dose 0.1 mg/kg, 1 h
[8] = single oral dose 0.1 mg/kg, 2 h
[9] = single oral dose 0.1 mg/kg, 4 h
[10] = single oral dose 0.5 mg/kg, 0 h
[11] = single oral dose 0.5 mg/kg, 1 h
[12] = single oral dose 0.5 mg/kg, 2 h
[13] = single oral dose 0.5 mg/kg, 4 h
[14] = single oral dose 2.5 mg/kg, 0 h
[15] = single oral dose 2.5 mg/kg, 0.5 h
[16] = single oral dose 2.5 mg/kg, 1 h
[17] = single oral dose 2.5 mg/kg, 2 h
[18] = single oral dose 2.5 mg/kg, 4 h

With `CC#CC#CC#CC#CCCC(CO)O[C@@H]1O[C@H](CO)[C@@H](O)[C@H](O)[C@H]1O` (stereo partly drawn) [cytopiloyne, 2-β-D-glucopyranosyloxy-1-hydroxytrideca-5,7,9,11-tetrayne] the “blood insulin levels compared to vehicle, effect in words” value (db/db mice [1]) was “significantly elevated the blood insulin levels”, the Blood insulin level (db/db mice [1]; [6]) was 17.2 ± 4.7 µg/L and the Blood insulin level (db/db mice [1]; single oral dose 0.1 mg/kg, 0.5 h) was 21.0 ± 1.3 µg/L. It also gave a Blood insulin level (db/db mice [1]; [7]) of 15.5 ± 0.6 µg/L, a Blood insulin level (db/db mice [1]; [8]) of 14.1 ± 0.5 µg/L and a Blood insulin level (db/db mice [1]; [9]) of 9.7 ± 1.3 µg/L. The Blood insulin level (db/db mice [1]; [10]) was 15.7 ± 1.9 µg/L, the Blood insulin level (db/db mice [1]; single oral dose 0.5 mg/kg, 0.5 h) was 22.6 ± 1.9 µg/L and the Blood insulin level (db/db mice [1]; [11]) was 16.0 ± 2.4 µg/L. The Blood insulin level (db/db mice [1]; [12]) was 12.8 ± 0.7 µg/L, the Blood insulin level (db/db mice [1]; [13]) was 12.2 ± 1.9 µg/L and the Blood insulin level (db/db mice [1]; [14]) was 12.5 ± 1.2 µg/L. For the same compound, the Blood insulin level (db/db mice [1]; [15]) was 25.5 ± 1.2 µg/L, the Blood insulin level (db/db mice [1]; [16]) was 18.9 ± 3.3 µg/L and the Blood insulin level (db/db mice [1]; [17]) was 17.6 ± 1.7 µg/L. The Blood insulin level (db/db mice [1]; [18]) was 8.9 ± 2.1 µg/L, the adiponectin expression (adiponectin; 5, 25 and 50 μM, 3T3-L1 cells) was “slight reduction in adiponectin expression” and the Mean body weight ([2]; 0.5 mg/kg/day, week 0) was 28.2 ± 3.0 g/mouse. It also gave a Mean body weight ([2]; 0.5 mg/kg/day, week 1) of 29.7 ± 3.1 g/mouse, a Mean body weight ([2]; 0.5 mg/kg/day, week 2) of 32.3 ± 3.3 g/mouse and a Mean body weight ([2]; 0.5 mg/kg/day, week 4) of 34.1 ± 2.9 g/mouse. It also gave a Mean body weight ([2]; 0.5 mg/kg/day, week 6) of 34.8 ± 2.8 g/mouse, a Mean body weight ([2]; 2.5 mg/kg/day, week 0) of 27.1 ± 2.4 g/mouse and a Mean body weight ([2]; 2.5 mg/kg/day, week 1) of 30.0 ± 2.5 g/mouse. The Mean body weight ([2]; 2.5 mg/kg/day, week 2) was 31.7 ± 1.5 g/mouse, the Mean body weight ([2]; 2.5 mg/kg/day, week 4) was 33.3 ± 4.1 g/mouse and the Mean body weight ([2]; 2.5 mg/kg/day, week 6) was 36.4 ± 3.7 g/mouse. For the same compound, the “body weight compared to control mice, in words” value ([2]; 6-week-treatment) was “did not significantly increase body weight”, the aP2 expression ([3]; 5, 25 and 50 μM, 3T3-L1 cells) was “little effect on aP2 expression” and the “up-regulation of insulin transcription relative to that by 16.7 mM glucose” value ([4]; 28 μM (FIGS. 4A-B)) was 40%. The “insulin mRNA relative to L13 mRNA, fold” value ([4]; 28 μM, rat islet cells, 24 h) was “around 2 times”, the level of cholesterol (RIN-m5F cells) was “not cholesterol” and the “level of DAG” value (RIN-m5F cells) was “dose-dependently increased the level of DAG”. For the same compound, the “postprandial blood glucose levels, effect in words” value (db/db mice [5]) was “significantly reduced postprandial blood glucose levels”, the Blood glucose level (db/db mice [5]; [6]) was 373 ± 6 mg/dL and the Blood glucose level (db/db mice [5]; [7]) was 267 ± 12 mg/dL. It also gave a Blood glucose level (db/db mice [5]; [8]) of 204 ± 17 mg/dL, a Blood glucose level (db/db mice [5]; [9]) of 158 ± 18 mg/dL and a Blood glucose level (db/db mice [5]; [10]) of 369 ± 27 mg/dL. For the same compound, the Blood glucose level (db/db mice [5]; [11]) was 214 ± 15 mg/dL, the Blood glucose level (db/db mice [5]; [12]) was 163 ± 8 mg/dL and the Blood glucose level (db/db mice [5]; [13]) was 132 ± 11 mg/dL. It also gave a Blood glucose level (db/db mice [5]; [14]) of 365 ± 9 mg/dL, a Blood glucose level (db/db mice [5]; [16]) of 207 ± 11 mg/dL and a Blood glucose level (db/db mice [5]; [17]) of 147 ± 12 mg/dL. It also gave a Blood glucose level (db/db mice [5]; [18]) of 129 ± 11 mg/dL.

With `CCC1=C(C)CN(C(=O)NCCc2ccc(S(=O)(=O)NC(=O)N[C@H]3CC[C@H](C)CC3)cc2)C1=O` [glimepiride, reference compound] the “blood insulin levels compared to vehicle, effect in words” value (db/db mice [1]) was “significantly elevated the blood insulin levels”, the Blood insulin level (db/db mice [1]; [14]) was 13.9 ± 1.2 µg/L and the Blood insulin level (db/db mice [1]; [15]) was 19.3 ± 4.2 µg/L. For the same compound, the Blood insulin level (db/db mice [1]; [16]) was 26.3 ± 3.3 µg/L, the Blood insulin level (db/db mice [1]; [17]) was 15.9 ± 1.7 µg/L and the Blood insulin level (db/db mice [1]; [18]) was 11.8 ± 2.1 µg/L. The “adiponectin expression level, times control levels” value (adiponectin; mouse, 8 days, 10 μM) was 9 times, the Mean body weight ([2]; 2.5 mg/kg/day, week 0) was 26.9 ± 1.2 g/mouse and the Mean body weight ([2]; 2.5 mg/kg/day, week 1) was 30.3 ± 2.7 g/mouse. It also gave a Mean body weight ([2]; 2.5 mg/kg/day, week 2) of 30.7 ± 3.0 g/mouse, a Mean body weight ([2]; 2.5 mg/kg/day, week 4) of 35.2 ± 1.8 g/mouse and a Mean body weight ([2]; 2.5 mg/kg/day, week 6) of 36.3 ± 2.1 g/mouse. For the same compound, the “aP2 expression, times of the control” value ([3]; mouse, 8 days, 10 μM) was 31 times, the “insulin mRNA relative to L13 mRNA” value ([4]; 10 μM, rat islet cells, 24 h) was “slightly decreased insulin transcription” and the “level of DAG” value (RIN-m5F cells) was “significantly increased the level of DAG”. For the same compound, the “postprandial blood glucose levels, effect in words” value (db/db mice [5]) was “significantly reduced postprandial blood glucose levels”, the Blood glucose level (db/db mice [5]; [14]) was 378 ± 9 mg/dL and the Blood glucose level (db/db mice [5]; [16]) was 237 ± 16 mg/dL. It also gave a Blood glucose level (db/db mice [5]; [17]) of 178 ± 20 mg/dL and a Blood glucose level (db/db mice [5]; [18]) of 187 ± 6 mg/dL.
